Target: T1, SIRT1 (Homo sapiens, UniProt Q96EB6)
T1 sequence (Q96EB6 1-747): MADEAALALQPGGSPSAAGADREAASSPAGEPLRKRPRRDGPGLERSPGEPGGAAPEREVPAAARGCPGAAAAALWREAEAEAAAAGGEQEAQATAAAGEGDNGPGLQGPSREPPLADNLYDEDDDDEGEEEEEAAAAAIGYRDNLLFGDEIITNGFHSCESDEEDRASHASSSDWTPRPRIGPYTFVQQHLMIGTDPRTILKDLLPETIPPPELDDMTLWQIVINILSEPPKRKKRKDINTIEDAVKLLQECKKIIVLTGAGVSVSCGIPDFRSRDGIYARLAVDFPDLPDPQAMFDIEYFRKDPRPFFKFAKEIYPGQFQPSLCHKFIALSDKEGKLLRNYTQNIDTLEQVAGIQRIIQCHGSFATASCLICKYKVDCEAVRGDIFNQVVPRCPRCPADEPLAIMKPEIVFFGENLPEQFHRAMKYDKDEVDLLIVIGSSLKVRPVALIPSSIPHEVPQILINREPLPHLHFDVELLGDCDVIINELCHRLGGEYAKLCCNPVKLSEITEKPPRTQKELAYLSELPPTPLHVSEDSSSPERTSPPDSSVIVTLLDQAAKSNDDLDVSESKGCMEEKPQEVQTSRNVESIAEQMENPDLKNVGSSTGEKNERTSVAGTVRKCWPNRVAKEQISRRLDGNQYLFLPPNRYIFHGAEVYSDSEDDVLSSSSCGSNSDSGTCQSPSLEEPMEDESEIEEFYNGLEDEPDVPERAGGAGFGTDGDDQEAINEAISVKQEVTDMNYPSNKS
Test: Trp mass spectrometry assay of SIRT1 activation (Ac-R-H-K-K(Ac)-W-NH2 peptide)
Format: biochemical
Settings: Trp peptide 0.5 μM, 120 μM βNAD+, 10 nM SIRT1, 25 min at 25° C.; for Emax: 25 min, read-out: TRP MAX RESP (percent maximum fold activation); for Emax / TRP MAX RESP (percent maximum fold activation): relative to control (100%)
Procedure, shortened: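 Mass spectrometry read-out (OAADPR formed, or deacetylated Trp peptide) after a 25 min NAD-dependent deacetylation by E. coli-expressed His-SIRT1, stopped with formic acid.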

Row | Structure (SMILES) | Emax [%] | TRP Activity (EC1.5, concentration of test compound that results in 150% activation of SIRT1) | TRP MAX RESP (percent maximum fold activation)
1 | C#Cc1ccnc(NC(=O)N2c3nc(C(=O)N[C@H](C)C(F)(F)F)ccc3N3CC[C@H]2C3)c1 [Example 299, (4S)—N5-(4-ethynylpyridin-2-yl)-N7-((R)-1,1,1-trifluoropropan-2-yl)-3,4-dihydro-1,4-methanopyrido[2,3-b][1,4]diazepine-5,7(2H)-dicarboxamide] | < 150 | A (EC1.5<1 μM) | –
2 | Cc1cnnc(NC(=O)N2c3nc(C(=O)N[C@H](C)C(F)(F)F)ccc3N3CC[C@H]2C3)c1 [Example 300, (4S)—N5-(5-methylpyridazin-3-yl)-N7-((R)-1,1,1-trifluoropropan-2-yl)-3,4-dihydro-1,4-methanopyrido[2,3-b][1,4]diazepine-5,7(2H)-dicarboxamide] | < 150 | A (EC1.5<1 μM) | –
3 | C[C@@H](NC(=O)c1ccc2c(n1)N(C(=O)Nc1cc(O)ccn1)[C@H]1CCN2C1)C(F)(F)F [Example 301, (4S)—N5-(4-hydroxypyridin-2-yl)-N7-((R)-1,1,1-trifluoropropan-2-yl)-3,4-dihydro-1,4-methanopyrido[2,3-b][1,4]diazepine-5,7(2H)-dicarboxamide] | < 150 | A (EC1.5<1 μM) | –
4 | CCNC(=O)c1ccnc(NC(=O)N2c3nc(C(=O)N[C@H](C)C(F)(F)F)ccc3N3CC[C@H]2C3)c1 [Example 304, (4S)—N5-(4-(ethylcarbamoyl)pyridin-2-yl)-N7-((R)-1,1,1-trifluoropropan-2-yl)-3,4-dihydro-1,4-methanopyrido[2,3-b][1,4]diazepine-5,7(2H)-dicarboxamide] | < 150 | A (EC1.5<1 μM) | –
5 | C[C@@H](NC(=O)c1ccc2c(n1)N(C(=O)Nc1cc(C(=O)NC3CC3)ccn1)[C@H]1CCN2C1)C(F)(F)F [Example 305, (4S)—N5-(4-(cyclopropylcarbamoyl)pyridin-2-yl)-N7-((R)-1,1,1-trifluoropropan-2-yl)-3,4-dihydro-1,4-methanopyrido[2,3-b][1,4]diazepine-5,7(2H)-dicarboxamide] | < 150 | A (EC1.5<1 μM) | –
6 | C[C@@H](NC(=O)c1ccc2c(n1)N(C(=O)Nc1cc(N3CCOCC3)ccn1)[C@H]1CCN2C1)C(F)(F)F [Example 307, (4S)—N5-(4-morpholinopyridin-2-yl)-N7-((R)-1,1,1-trifluoropropan-2-yl)-3,4-dihydro-1,4-methanopyrido[2,3-b][1,4]diazepine-5,7(2H)-dicarboxamide] | < 150 | A (EC1.5<1 μM) | –
7 | C[C@@H](NC(=O)c1ccc2c(n1)N(C(=O)Nc1cc(-c3nn[nH]n3)ccn1)[C@H]1CCN2C1)C(F)(F)F [Example 308, (4S)—N5-(4-(2H-tetrazol-5-yl)pyridin-2-yl)-N7-((R)-1,1,1-trifluoropropan-2-yl)-3,4-dihydro-1,4-methanopyrido[2,3-b][1,4]diazepine-5,7(2H)-dicarboxamide] | < 150 | A (EC1.5<1 μM) | –
8 | C[C@@H](NC(=O)c1ccc2c(n1)N(C(=O)Nc1cc(NCCO)ccn1)[C@H]1CCN2C1)C(F)(F)F [Example 309, (4S)—N5-(4-((2-hydroxyethyl)amino)pyridin-2-yl)-N7-((R)-1,1,1-trifluoropropan-2-yl)-3,4-dihydro-1,4-methanopyrido[2,3-b][1,4]diazepine-5,7(2H)-dicarboxamide] | < 150 | A (EC1.5<1 μM) | –
9 | C[C@@H](NC(=O)c1ccc2c(n1)N(C(=O)Nc1ncc(F)cc1F)[C@H]1CCN2C1)C(F)(F)F [Example 310, (4S)—N5-(3,5-difluoropyridin-2-yl)-N7-((R)-1,1,1-trifluoropropan-2-yl)-3,4-dihydro-1,4-methanopyrido[2,3-b][1,4]diazepine-5,7(2H)-dicarboxamide] | – | B (EC1.5 1-25 μM) | B (Fold Activation<150%)
10 | C=CCNC(=O)c1ccc2c(n1)N(C(=O)Nc1cc(OC[C@H](O)CO)ccn1)[C@H]1CCN2C1 [Example 315, (4S)—N7-allyl-N5-(4-((R)-2,3-dihydroxypropoxy)pyridin-2-yl)-3,4-dihydro-1,4-methanopyrido[2,3-b][1,4]diazepine-5,7(2H)-dicarboxamide] | – | B (EC1.5 1-25 μM) | B (Fold Activation<150%)
11 | Cc1ccc2c(NC(=O)N3c4nc(C(=O)N[C@H](C)C(F)(F)F)c(Cl)cc4N4CC[C@H]3C4)n[nH]c2n1 [Example 316, (4S)-8-chloro-N5-(6-methyl-1H-pyrazolo[3,4-b]pyridin-3-yl)-N7-((R)-1,1,1-trifluoropropan-2-yl)-3,4-dihydro-1,4-methanopyrido[2,3-b][1,4]diazepine-5,7(2H)-dicarboxamide] | < 150 | B (EC1.5 1-25 μM) | –
12 | Cc1ncc(-c2cc(NC(=O)N3c4nc(C(=O)N[C@H](C)C(F)(F)F)ccc4N4CC[C@H]3C4)ncn2)o1 [Example 318, (4S)—N5-(6-(2-methyloxazol-5-yl)pyrimidin-4-yl)-N7-((R)-1,1,1-trifluoropropan-2-yl)-3,4-dihydro-1,4-methanopyrido[2,3-b][1,4]diazepine-5,7(2H)-dicarboxamide] | < 150 | A (EC1.5<1 μM) | –
13 | Cc1ncc(-c2cc(NC(=O)N3c4nc(C(=O)N[C@H](C)C(F)(F)F)ccc4N4CC[C@H]3C4)c(=O)n(C)c2)o1 [Example 319, (4S)—N5-(1-methyl-5-(2-methyloxazol-5-yl)-2-oxo-1,2-dihydropyridin-3-yl)-N7-((R)-1,1,1-trifluoropropan-2-yl)-3,4-dihydro-1,4-methanopyrido[2,3-b][1,4]diazepine-5,7(2H)-dicarboxamide] | < 150 | A (EC1.5<1 μM) | –
14 | CC(=O)Nc1ccnc(NC(=O)N2c3nc(C(=O)N[C@H](C)C(F)(F)F)ccc3N3CC[C@H]2C3)c1 [Example 320, (4S)—N5-(4-acetamidopyridin-2-yl)-N7-((R)-1,1,1-trifluoropropan-2-yl)-3,4-dihydro-1,4-methanopyrido[2,3-b][1,4]diazepine-5,7(2H)-dicarboxamide] | < 150 | A (EC1.5<1 μM) | –
15 | C[C@@H](NC(=O)c1ccc2c(n1)N(C(=O)Nc1cc(-c3cn[nH]c3)ccn1)[C@H]1CCN2C1)C(F)(F)F [Example 321, (4S)—N5-(4-(1H-pyrazol-4-yl)pyridin-2-yl)-N7-((R)-1,1,1-trifluoropropan-2-yl)-3,4-dihydro-1,4-methanopyrido[2,3-b][1,4]diazepine-5,7(2H)-dicarboxamide] | < 150 | A (EC1.5<1 μM) | –
16 | C[C@@H](NC(=O)c1ccc2c(n1)N(C(=O)Nc1cc(-c3ncn[nH]3)ccn1)[C@H]1CCN2C1)C(F)(F)F [Example 322, (4S)—N5-(4-(1H-1,2,4-triazol-5-yl)pyridin-2-yl)-N7-((R)-1,1,1-trifluoropropan-2-yl)-3,4-dihydro-1,4-methanopyrido[2,3-b][1,4]diazepine-5,7(2H)-dicarboxamide] | < 150 | A (EC1.5<1 μM) | –
17 | C[C@@H](NC(=O)c1ccc2c(n1)N(C(=O)Nc1cc(-c3cc[nH]n3)ccn1)[C@H]1CCN2C1)C(F)(F)F [Example 323, (4S)—N5-(4-(1H-pyrazol-3-yl)pyridin-2-yl)-N7-((R)-1,1,1-trifluoropropan-2-yl)-3,4-dihydro-1,4-methanopyrido[2,3-b][1,4]diazepine-5,7(2H)-dicarboxamide] | < 150 | A (EC1.5<1 μM) | –

— patent US10072011B2, “Substituted bridged urea analogs as sirtuin modulators” (GlaxoSmithKline Intellectual Property (No.2) Limited, priority 2014, dated 2018)
